Measurements reported in US20110224133A1 (University of Southern California, priority 2008, published 2011).
Entries after “also recorded” stand apart in the source; their conditions may differ.

Legend:
[1] = tested on: TREX-BCBL cells; assay: Autophagy and cell death in TREX-BCBL-vFLIP cells; details: for suppression of rapamycin-induced autophagy (and cell death) in TREX-BCBL cells: doxycycline-induced vFLIP, 2 μM rapamycin 12 hr
Experimental: Subsequently, autophagy was quantified as means (±SD) of the combined results from three independent experiments. 2 μM rapamycin treatment was included as a control. For panels B (right), TREX-BCBL-Vector and TREX-BCBL-vFLIP cells were treated with Doxycycline for 24 hr, followed by incubation with 0, 30, or 50 μM of TAT only, the K-α2, or the K-α4 peptide (top), or TAT only, the C-α2, or the C-α4 peptide (bottom) for an additional 12 hr and a BC Z2 CS analyzer used to determine cell death (as a percentage). […] For panel E, TREX-BCBL-Vector and TREX-BCBL-vFLIP cells were treated with the K-α and the K-α4 (30 μM each) peptide for 12 hr, followed by immunoblotting with αLC3 and αactin. […] For panel G, various human lymphoma cells were treated with 0, 30, or 50 μM of the K-α2 peptide (left) or the K-α4 peptide (right) for 12 hr and cell death (as a percentage) was determined using a BC Z2 CS Analyzer. For panel H, KSHV-infected BCBL1 cells were incubated with various combinations of rapamycin (25 nM), the K-α2 peptide (20 μM), and the K-α4 peptide (20 μM). A BC Z2 CS Analyzer was used to determine cell numbers (left) and cell death at 6 days (right).

[2] = tested on: LC3-II; assay: Anti-LC3 immunoblotting of starved NIH3T3 cells expressing FLIP; assay type: cell-based, murine; details: starvation, Hank's solution 4 hr
Experimental: The arrows indicate autophagosomes.
During autophagy, an LC3 precursor (LC3-I) undergoes cleavage and lipidation to yield its processed form (LC3-II) (Mizushima et al. (2008) Nature 451:1069-1075). Immunoblotting was performed with an antibody against LC3 to further measure autophagic activity. […] Polypeptides were resolved by SDS-polyacrylamide gel electrophoresis (PAGE) and transferred to a PVDF membrane (Bio-Rad). […] The proteins were visualized by a chemiluminescence reagent (Pierce) and detected by a Fuji Phosphor Imager. […] Finally, the ability of FLIP to block autophagy in multiple cell types was evaluated.

[3] = biological target: T1, Atg3-LC3 interaction (Homo sapiens, UniProt Q9NT62); assay: Competition with LC3 for Atg3 binding; details: HEK293T cells, GST-Atg3 and GFP-LC3
T1 construct: expressed in transfected cells; host or cells: HEK293T
From the text: (§1) For panel A, at 48 hr post-transfection with Flag-vFLIP and/or GFP-Atg3 (left) or Flag-vFLIP and/or GST-Atg3 (middle), HEK293T cells were used for immunoprecipitation with αFlag, αGFP, or GST pulldown, followed by immunoblotting with the indicated antibodies. For panel A (right), HEK293T cells transfected with FIag-vFLIP were used for immunoprecipitation with mouse IgG or αFlag, followed by immunoblotting with αAtg3. Panel B (top) depicts a schematic diagram of human Atg3. N,N-terminus; FR, flexible region; C, C-terminus. […] Panel C (top) depicts a schematic diagram of KSHV vFLIP. […] For panel F, NIH3T3-Vector and NIH3T3-vFLIP cells were treated with 2 nM rapamycin for 12 hr and used for IP with αAtg3, followed by immunoblotting with αLC3. In panels A-F, whole cell lysates (WCLs) were used for immunoblotting with the indicated antibodies to show expression.
(§2) Due to identical Atg3 binding patterns seen in vFLIP and LC3, the ability of vFLIP to directly compete with LC3 for Atg3 binding was tested. HEK293T cells were transfected with GST-Atg3 and GFP-LC3 along with increasing amount of Flag-vFLIP. At 48 hr post-transfection, GST pulldown was performed as described above, followed by immunoblotting with αGFP or αFlag.

[4] = tested on: Atg3-LC3 interaction; assay: Competition with LC3 for Atg3 binding; details: NIH3T3 cells, normal conditions; weakly recovered with 2 nM rapamycin 12 hr
From the text: as §1, §2

[5] = tested on: Atg3; assay: Co-immunoprecipitation and GST pulldown with Atg3 in HEK293T cells; assay type: binding, human; details: GST-Atg3 deletion mutants, GST pulldown
From the text: as §1
(§3) WCLs were used for immunoblotting with αFlag or αGST. […] WCLs were used for immunoblotting with αFlag or αGST.
(§4) The ability of FLIP to bind to Atg3 was evaluated by co-immunoprecipitation assay. HEK293T cells were transfected with Flag-vFLIP and/or GFP-Atg3 or Flag-vFLIP and/or GST-Atg3, and at 48 hr post-transfection, cells were harvested and lysed in an NP40 buffer supplemented with complete protease inhibitor cocktail (Roche). After pre-clearing with protein A/G agarose beads for 1 hr at 4° C., whole-cell lysates were used for immunoprecipitation with αFlag, αGFP, or GST. Generally, 1-4 μg of the antibody was added to 1 ml of the cell lysate and incubated at 4° C. for 8 to 12 hr. The immunoprecipitates were then washed extensively with a lysis buffer and eluted by boiling them with an SDS loading buffer for 5 min. Following immunoprecipitation, samples were treated to immunoblot using αAtg3 (1:500) (Novus).
(§5) The overall structure of yeast Atg3 has a unique hammer-like shape with the N-terminal and C-terminal regions discretely responsible for Atg7 and Atg8 (equivalent to mammalian LC3) binding, respectively. (Yamada et al. (2007) J. Biol. Chem. 282:8036-8043). Based on the structure of yeast Atg3, human Atg3 deletion mutants fused with a GST mammalian expression vector were constructed: GST-Atg31-93, GST-Atg3193-268, GST-Atg3268-315, and GST-Atg3193-315.

[6] = biological target: T2, Atg3 (Homo sapiens, UniProt Q9NT62); assay: as above; assay type: binding; details: HEK293T cells, 48 hr post-transfection
T2 construct: expressed in transfected cells; host or cells: HEK293T
From the text: as §1, §3, §4, §5

[7] = tested on: NIH3T3 cells; assay: GFP-LC3 autophagy assay in NIH3T3 cells expressing FLIP; assay type: cell-based, murine; details: ectopic expression in NIH3T3 cells, Hank's solution 4 hr or 2 μM rapamycin 3 hr
[8] = tested on: BCBL1 cells; assay: Protection of TREX-BCBL cells from rapamycin- or zVAD-induced growth suppression and autophagic death; assay type: cell-based, human; details: ectopic expression in BCBL1 cells; 50 nM rapamycin or 50 μM zVAD, 6 days
Experimental: The effect of vFLIP on autophagy was tested in a KSHV-infected BCBL1 cell line.

[9] = tested on: NIH3T3 cells; assay: TNF-α/CHX-induced apoptosis, PI staining and flow cytometry; assay type: cell-based, murine; details: 12 hr
Experimental: (§6) In panel A, propidium iodide (PI) staining and flow cytometry analysis were performed to determine apoptosis levels. In panels B-C, NIH3T3 cells containing vector, KSHV vFLIP, or its mutants were transfected with an NF-κB luciferase reporter construct and a control renilla luciferase plasmid, pRL-SV40. At 48 hr post-transfection, luciferase activity was measured with a luminometer using a dual luciferase assay kit and normalized with renilla luciferase activity to determine transfection efficiency (B). […] At 48 hr post-transfection, luciferase activity was measured as described above (E).
(§7) Propidium iodide (PI) staining and flow cytometry analysis were performed to determine apoptosis levels (FIG. 3A). Alternatively, NIH3T3 cells containing vector, KSHV vFLIP, or its mutants were transfected with an NF-κB-luciferase reporter construct and a control renilla luciferase plasmid, pRL-SV40 (Promega). At 48 hr post-transfection, luciferase activity was measured with a luminometer using a dual luciferase assay kit (Promega) and normalized with renilla luciferase activity to determine transfection efficiency (FIG. 3B).

[10] = tested on: NF-κB; assay: NF-κB luciferase reporter assay in NIH3T3 cells; assay type: cell-based, murine; details: 48 hr post-transfection
Experimental: as §6, §7

[11] = tested on: HCT116, HaCat, and MEF cells; assay: GFP-LC3 autophagy assay in HCT116, HaCat and MEF cells; assay type: cell-based; details: 2 μM rapamycin 3 hr

T2 sequence (Q9NT62 whole entry): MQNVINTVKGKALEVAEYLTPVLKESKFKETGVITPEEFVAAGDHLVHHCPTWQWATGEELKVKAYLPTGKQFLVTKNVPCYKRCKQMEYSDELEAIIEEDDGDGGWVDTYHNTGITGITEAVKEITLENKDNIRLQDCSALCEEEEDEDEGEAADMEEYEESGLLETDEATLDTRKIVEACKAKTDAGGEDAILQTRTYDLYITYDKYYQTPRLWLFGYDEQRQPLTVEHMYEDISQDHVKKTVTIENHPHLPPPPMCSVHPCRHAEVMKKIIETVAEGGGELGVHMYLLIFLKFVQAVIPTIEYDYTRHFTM
T1 sequence (Q9NT62 whole entry): as above

KSHV vFLIP: viral FLIP of Kaposi's sarcoma-associated herpes virus, full-length protein
inhibition of peptide-induced autophagy and cell death ([1]; TREX-BCBL-vFLIP cells treated with FLIP peptides): minimal
suppression of rapamycin-induced autophagy (and cell death) in TREX-BCBL cells [1]: readily blocked rapamycin-induced autophagy and cell death
suppression of rapamycin-induced autophagy (and cell death) in TREX-BCBL cells ([1]; listed as vFLIP): extensively suppressed rapamycin-induced autophagy
processed LC3-II [2]: little or no processed LC3-II
Atg3-LC3 interaction with increasing vFLIP expression [3]: marked decrease of Atg3-LC3 interaction
endogenous Atg3 and LC3 interaction [4]: dramatic reduction of endogenous Atg3 and LC3 interaction
Atg3 regions bound (Atg3 deletion mutants) [5]: independently bound either the aa193-268 or aa268-315 region of the C-terminal of Atg3
Atg3 binding [6]: strongly interacted with endogenously and exogenously expressed Atg3
suppression of starvation- and rapamycin-induced autophagy (GFP-LC3 puncta) [7]: strongly suppressed starvation- and rapamycin-induced autophagy; also recorded: anti-autophagy
suppression of starvation- and rapamycin-induced autophagy (GFP-LC3 puncta) ([7]; listed as vFLIP): effectively suppressed starvation- and rapamycin-induced autophagy
protection from rapamycin- or zVAD-induced growth suppression and autophagic death [8]: almost completely blocked rapamycin- or zVAD-induced growth suppression and autophagic death
blocking of TNFα-induced apoptosis [9]: anti-apoptosis
NF-κB activation [10]: carried out NF-κB activation
blocking of autophagy in several cell types [11]: efficiently blocked autophagy in a number of cell types
